pIC50: −log10 of the molar value. Activity calls are given as the source filed them. No cut-off for these calls is given here.
Assays:
Leishmania donovani [1] = test: Antimicrobial activity against promastigote stage of Leishmania donovani after 72 hrs by Alamar Blue assay; type: functional, organism-based; conditions: Leishmania donovani, 72 h; for pIC50: read-out: IC50
[2] = test system: Trypanosoma brucei brucei; test: Antimicrobial activity against bloodstream form of Trypanosoma brucei brucei TC221; type: functional, organism-based
Leishmania donovani [3] = test: Antimicrobial activity against axenic amastigote stage of Leishmania donovani after 72 hrs by Alamar Blue assay; type: functional, organism-based; conditions: Leishmania donovani, 72 h; for pIC50: read-out: IC50
Leishmania infantum [4] = test: Antimicrobial activity against amastigote stage of Leishmania infantum; type: functional, organism-based
Trypanosoma brucei = test: Antimicrobial activity against trypamastigote stage of Trypanosoma brucei after 72 hrs by Alamar Blue assay; type: functional, organism-based
Leishmania infantum [5] = test: Antimicrobial activity against promastigote stage of Leishmania infantum; type: functional, organism-based
THP-1 = test: Cytotoxicity against human THP1 cells up to 10 ug/ml after 48 hrs by neutral red assay; type: cell-based; conditions: thp-1, 48 h
LLC-PK1 = test: Cytotoxicity against pig LLC-PK1 cells after 48 hrs by neutral red assay; type: cell-based; conditions: Sus scrofa, LLC-PK1, 48 h
Leishmania donovani [6] = test: Antimicrobial activity against promastigote stage of Leishmania donovani infected in human THP1 cells after 72 hrs by Alamar Blue assay; type: functional, organism-based
HepG2 = test: Cytotoxicity against human HepG2 cells after 48 hrs by neutral red assay; type: cell-based; conditions: HepG2, 48 h

COc1ccc2c(c1)[nH]c1c(C)nccc12 [HARMINE]
pIC50 (Leishmania donovani [1]): 5.43 | pIC50 [2]: 4.13 | pIC50 (Leishmania donovani [3]): 6.64 | pIC50 (Leishmania infantum [4]): 6.64 | pIC50 (Trypanosoma brucei; Trypanosoma brucei, 72 h, read-out: IC50): 4.13 | pIC50 (Leishmania infantum [5]): 5.43

O=C(c1ccc([N+](=O)[O-])s1)N1CCc2c([nH]c3ccccc23)C1
IC90 (Leishmania donovani [1]): 36.6 µM | pIC50 (Leishmania donovani [1]): 4.90 | Activity (THP-1): Non-toxic | pIC50 (LLC-PK1): 4.25 | IC90 (Leishmania donovani [3]): 107 µM | pIC50 (Leishmania donovani [3]): 4.20 | IC90 (Leishmania donovani [6]; THP-1): inactive | IC50 (Leishmania donovani [6]; thp-1): Not Active | pIC50 (HepG2): 4.20 | IC50 (Trypanosoma brucei): Not Active | IC90 (Trypanosoma brucei): inactive

From ChEMBL document CHEMBL3352781, “Synthesis, antileishmanial and antitrypanosomal activities of N-substituted tetrahydro-β-carbolines” (Bioorg Med Chem Lett, 2014)
